The text below walks through data of patent US20240109868A1, “EP300/CBP MODULATOR, PREPARATION METHOD THEREFOR AND USE THEREOF” (Miracure Biotechnology Limited, priority 2022, published 2024).

As a reminder, the IC50 is the concentration needed to halve the response being measured.

SMILES strings stand for the structures.

In one assay the test system is 22Rv1 Cell. Put plainly: 22RV1 cell growth inhibition, CellTiter-Glo, 72 h. Format: cell-based. As to conditions: Homo sapiens, 22Rv1, 72 h, 22RV1 cells, 72 h culture. The procedure, abridged: (§1)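 Cells seeded at 5×10^3/well overnight in RPMI-1640/10% FBS, then exposed to compound (0.5% DMSO final) for 72 h at 37 °C.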
(In general: ATP-based viability assays read luminescence as a measure of living cells.)

A further assay has as its system vCap Cell. Put plainly: vCap cell growth inhibition, CellTiter-Glo, 72 h. Format: cell-based. Particulars: Homo sapiens, VCaP, 72 h, vCap cells, 72 h culture. The procedure, abridged: as §1
In another assay the target is T1, EP300 (Homo sapiens, UniProt Q09472).
T1 construct: purchased
T1 sequence (Q09472 whole entry): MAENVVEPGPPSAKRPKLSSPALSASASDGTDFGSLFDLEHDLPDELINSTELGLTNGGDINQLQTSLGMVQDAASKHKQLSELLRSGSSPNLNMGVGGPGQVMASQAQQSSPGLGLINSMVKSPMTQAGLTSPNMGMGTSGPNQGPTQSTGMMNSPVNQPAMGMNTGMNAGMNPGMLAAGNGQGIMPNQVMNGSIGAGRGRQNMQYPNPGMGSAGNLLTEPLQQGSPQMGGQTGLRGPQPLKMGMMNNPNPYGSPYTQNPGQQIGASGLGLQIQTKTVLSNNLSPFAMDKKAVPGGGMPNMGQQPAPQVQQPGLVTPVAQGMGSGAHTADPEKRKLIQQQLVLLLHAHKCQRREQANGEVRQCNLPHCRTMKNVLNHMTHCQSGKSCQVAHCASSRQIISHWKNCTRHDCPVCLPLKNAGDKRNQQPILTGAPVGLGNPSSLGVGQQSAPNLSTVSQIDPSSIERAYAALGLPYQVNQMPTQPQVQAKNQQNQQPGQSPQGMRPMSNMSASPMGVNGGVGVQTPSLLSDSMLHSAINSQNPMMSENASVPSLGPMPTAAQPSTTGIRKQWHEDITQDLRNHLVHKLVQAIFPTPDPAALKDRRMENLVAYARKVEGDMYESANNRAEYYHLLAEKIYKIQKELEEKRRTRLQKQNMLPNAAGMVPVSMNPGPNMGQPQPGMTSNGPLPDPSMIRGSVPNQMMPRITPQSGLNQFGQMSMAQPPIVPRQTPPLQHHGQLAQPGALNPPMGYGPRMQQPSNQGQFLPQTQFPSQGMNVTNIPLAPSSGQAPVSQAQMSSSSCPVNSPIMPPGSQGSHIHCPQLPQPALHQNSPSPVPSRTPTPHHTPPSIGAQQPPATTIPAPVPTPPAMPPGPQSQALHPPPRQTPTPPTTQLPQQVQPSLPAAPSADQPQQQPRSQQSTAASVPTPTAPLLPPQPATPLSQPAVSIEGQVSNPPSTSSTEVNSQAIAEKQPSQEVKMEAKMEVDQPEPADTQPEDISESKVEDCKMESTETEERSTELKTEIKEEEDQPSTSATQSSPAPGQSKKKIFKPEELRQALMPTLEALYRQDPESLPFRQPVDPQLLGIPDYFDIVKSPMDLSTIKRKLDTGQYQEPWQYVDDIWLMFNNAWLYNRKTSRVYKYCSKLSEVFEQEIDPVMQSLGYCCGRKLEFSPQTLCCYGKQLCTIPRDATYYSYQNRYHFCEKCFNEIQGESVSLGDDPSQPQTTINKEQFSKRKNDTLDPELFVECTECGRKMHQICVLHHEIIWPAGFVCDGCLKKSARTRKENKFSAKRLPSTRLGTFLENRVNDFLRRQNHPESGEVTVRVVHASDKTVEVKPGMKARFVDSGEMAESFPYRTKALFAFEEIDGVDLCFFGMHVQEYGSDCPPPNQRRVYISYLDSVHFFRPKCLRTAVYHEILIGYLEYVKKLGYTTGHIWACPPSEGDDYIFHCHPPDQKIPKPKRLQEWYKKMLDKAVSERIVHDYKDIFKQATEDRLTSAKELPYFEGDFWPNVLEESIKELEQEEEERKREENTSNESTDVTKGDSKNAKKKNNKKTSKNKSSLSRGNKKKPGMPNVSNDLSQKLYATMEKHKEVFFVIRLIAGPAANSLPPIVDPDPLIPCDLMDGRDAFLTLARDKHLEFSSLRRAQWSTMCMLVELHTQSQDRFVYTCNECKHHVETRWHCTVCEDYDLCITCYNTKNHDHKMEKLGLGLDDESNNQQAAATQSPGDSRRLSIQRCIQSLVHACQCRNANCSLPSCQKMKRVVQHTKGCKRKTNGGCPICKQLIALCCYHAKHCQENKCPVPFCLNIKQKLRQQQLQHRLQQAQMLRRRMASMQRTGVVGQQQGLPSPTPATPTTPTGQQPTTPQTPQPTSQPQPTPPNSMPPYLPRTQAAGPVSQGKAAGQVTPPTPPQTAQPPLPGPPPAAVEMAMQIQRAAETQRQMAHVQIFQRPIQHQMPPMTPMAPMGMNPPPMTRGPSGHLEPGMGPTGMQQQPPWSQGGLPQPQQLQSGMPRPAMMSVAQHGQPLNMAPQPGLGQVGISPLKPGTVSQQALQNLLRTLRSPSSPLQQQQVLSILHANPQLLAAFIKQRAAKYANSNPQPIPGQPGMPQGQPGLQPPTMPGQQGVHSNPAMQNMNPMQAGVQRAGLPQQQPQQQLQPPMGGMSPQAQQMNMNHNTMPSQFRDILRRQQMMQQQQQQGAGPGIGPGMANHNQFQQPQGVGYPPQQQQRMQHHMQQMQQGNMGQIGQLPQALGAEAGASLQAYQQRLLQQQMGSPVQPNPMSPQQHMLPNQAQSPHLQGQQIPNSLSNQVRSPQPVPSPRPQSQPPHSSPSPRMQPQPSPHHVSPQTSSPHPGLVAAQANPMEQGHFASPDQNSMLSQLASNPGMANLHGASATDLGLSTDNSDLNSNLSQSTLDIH
Description: Ep300 AlphaLISA assay kit. The class given is biochemical. As to conditions: read-out: EP300 ALPHA IC50. As to the method: The biochemical activity of the EP300 modulators was determined using the Ep300 AlphaLISA® assay kit. The assay is based on the […] of residues in the peptide substrate by enzymatic transfer of acetyl groups from acetyl-CoA to particular lysine. The compounds were incubated with EP300 and then with an antibody combination of an antibody that specifically binds to an acetylated peptide and acceptor beads that bind to an acetylated peptide, followed by streptavidin-labeled donor beads. The alpha counts were read, the data were analyzed using Prism 7.0, and the IC50 values were calculated. The values are shown as mean f SEM (N=2).

The next assay deals with T2, CBP bromodomain (Homo sapiens, UniProt Q92793).
T2 construct: purchased
T2 sequence (Q92793 1085-1192 limits assumed): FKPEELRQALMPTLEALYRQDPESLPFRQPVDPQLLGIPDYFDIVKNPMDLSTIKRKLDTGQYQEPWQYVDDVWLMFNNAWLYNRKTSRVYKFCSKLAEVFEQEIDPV
Description: CBP AlphaLISA assay kit (CBP bromodomain binding to acetylated histone substrate). Particulars: read-out: CBP ALPHA IC50. Here is the method:
The biochemical activity of the CBP inhibitors was determined using the CBP AlphaLISA® assay kit. The assay is based on the binding of the CBP bromodomain to the acetylated histone substrate. The compounds were incubated with CBP and the biotinylated substrate for 30 min. Then acceptor beads were added, followed by 15 min of incubation, and donor beads were added, followed by 15 min of incubation. Then the alpha counts were read, the data were analyzed using Prism 7.0, and the IC50 values were calculated. The values are shown as mean f SEM (N=2).
For orientation: Alpha assays give light when donor and acceptor beads are brought close together.

In the case of `COC(=O)N1CCc2cccc(N3CCCc4cc(-c5cnn(C)c5)c(C(F)F)cc43)c2C1` [Compound M001202], the IC50 was more than 1000 nM with 22Rv1 Cell, more than 1000 nM in the assay with vCap Cell, less than 10 nM on EP300 and less than 10 nM on CBP bromodomain.

`CC(=O)N1Cc2nc(C3CCOCC3)nc(N3CCCc4cc(-c5cnn(C)c5)c(C(F)F)cc43)c2C1` [Compound M001243]: the IC50 with 22Rv1 Cell was more than 1000 nM; in the assay with vCap Cell, more than 1000 nM; on EP300, more than 10 nM; on CBP bromodomain, more than 10 nM.

Turning to `CNC(=O)N1Cc2nc(Cl)nc(N3CCCc4cc(-c5cnn(C)c5)c(C(F)F)cc43)c2C1` [Compound M001242], the IC50 in the assay with 22Rv1 Cell was more than 1000 nM; in the assay with vCap Cell, more than 1000 nM; on EP300, more than 10 nM; at CBP bromodomain, more than 10 nM.

Take `CNC(=O)N1CCc2c(c(N3CCCc4cc(-c5cnn(C)c5)c(C(F)F)cc43)nn2C2CCOCC2)C1` [GNE-781]: the IC50 was more than 1000 nM with 22Rv1 Cell, more than 1000 nM in the assay with vCap Cell, less than 10 nM on EP300 and less than 10 nM on CBP bromodomain.

As for `CC(=O)N1Cc2cc(C3CCOCC3)cc(N3CCCc4cc(-c5cnn(C)c5)c(C(F)F)cc43)c2C1` [Compound M001067], the IC50 with 22Rv1 Cell is more than 1000 nM; in the assay on vCap Cell, less than 1000 nM; at EP300, less than 10 nM; on CBP bromodomain it was less than 10 nM.
